Legend:
Experiment in all cases: area over the GR curve, 72 h; higher = more effect;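 further: Dye Drop or Deep Dye Drop imaging of viable cells in 384-well plates (Hoechst nuclei, LIVE/DEAD dye), nine half-log doses, GR normalized to DMSO controls and time-zero plates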
AU565 = tested on: AU565
CAL120 = tested on: CAL120
CAL51 = tested on: CAL51
MCF12A = tested on: MCF12A
MDAMB175VII = tested on: MDAMB175VII
MGH312 = tested on: MGH312
PDX1258 = tested on: PDX1258
PDXHCI002 = tested on: PDXHCI002
SKBR3 = tested on: SKBR3
SUM1315 = tested on: SUM1315
SUM149 = tested on: SUM149
SUM44PE = tested on: SUM44PE
ZR7530 = tested on: ZR7530

Structure (SMILES): COc1cccc(OCCCN)c1-c1cc(Nc2cnc(C#N)cn2)n[nH]1
- area over the GR curve (AU565): 0.5 GR
- area over the GR curve (CAL120): 0.344 GR
- area over the GR curve (CAL51): 0.528 GR
- area over the GR curve (MCF12A): 0.589 GR
- area over the GR curve (MDAMB175VII): 0.245 GR
- area over the GR curve (MGH312): 0.0934 GR
- area over the GR curve (PDX1258): 0.868 GR
- area over the GR curve (PDXHCI002): 0.045 GR
- area over the GR curve (SKBR3): 0.802 GR
- area over the GR curve (SUM1315): 0.809 GR
- area over the GR curve (SUM149): 0.793 GR
- area over the GR curve (SUM44PE): 0.75 GR
- area over the GR curve (ZR7530): 0.0681 GR

Structure (SMILES): Cc1nc(NC(=O)N2CCC[C@H]2C(N)=O)sc1-c1ccnc(C(C)(C)C(F)(F)F)c1 [Alpelisib/BYL719] (max 10 µM)
- area over the GR curve (AU565): 0.472 GR
- area over the GR curve (CAL120): 0.0922 GR
- area over the GR curve (CAL51): 0.149 GR
- area over the GR curve (MCF12A): 0.0144 GR
- area over the GR curve (MDAMB175VII): 0.563 GR
- area over the GR curve (MGH312): -0.015 GR
- area over the GR curve (PDX1258): 0.0534 GR
- area over the GR curve (PDXHCI002): 0.063 GR
- area over the GR curve (SKBR3): 0.379 GR
- area over the GR curve (SUM1315): 0.116 GR
- area over the GR curve (SUM149): 0.0367 GR
- area over the GR curve (SUM44PE): 0.33 GR
- area over the GR curve (ZR7530): 0.351 GR

Structure (SMILES): CC(=O)c1c(C)c2cnc(Nc3ccc(N4CCN(CCOCCOCCOCCNC(=O)COc5cccc6c5C(=O)N(C5CCC(=O)NC5=O)C6=O)CC4)cn3)nc2n(C2CCCC2)c1=O (centres undefined) [BSJ-03-123] (max 10 µM)
- area over the GR curve (AU565): 0.34 GR
- area over the GR curve (CAL120): 0.16 GR
- area over the GR curve (CAL51): 0.187 GR
- area over the GR curve (MCF12A): 0.136 GR
- area over the GR curve (MDAMB175VII): 0.446 GR
- area over the GR curve (MGH312): 0.129 GR
- area over the GR curve (PDX1258): 0.0283 GR
- area over the GR curve (PDXHCI002): 0.246 GR
- area over the GR curve (SKBR3): 0.338 GR
- area over the GR curve (SUM1315): 0.312 GR
- area over the GR curve (SUM149): 0.293 GR
- area over the GR curve (SUM44PE): 0.284 GR
- area over the GR curve (ZR7530): 0.387 GR

Structure (SMILES): CC(=O)c1c(C)c2cnc(Nc3ccc(N4CCNCC4)cn3)nc2n(C2CCCC2)c1=O (max 3.162 µM)
- area over the GR curve (AU565): 0.296 GR
- area over the GR curve (CAL120): 0.142 GR
- area over the GR curve (CAL51): 0.25 GR
- area over the GR curve (MCF12A): 0.0837 GR
- area over the GR curve (MDAMB175VII): 0.763 GR
- area over the GR curve (MGH312): -0.129 GR
- area over the GR curve (PDX1258): -0.0777 GR
- area over the GR curve (PDXHCI002): 0.273 GR
- area over the GR curve (SKBR3): 0.285 GR
- area over the GR curve (SUM1315): 0.33 GR
- area over the GR curve (SUM149): 0.19 GR
- area over the GR curve (SUM44PE): 0.216 GR
- area over the GR curve (ZR7530): 0.284 GR

Structure (SMILES): CS(=O)(=O)N1CCN(Cc2cc3nc(-c4cccc5[nH]ncc45)nc(N4CCOCC4)c3s2)CC1 [Pictilisib/GDC0941] (max 10 µM)
- area over the GR curve (AU565): 0.646 GR
- area over the GR curve (CAL120): 0.255 GR
- area over the GR curve (CAL51): 0.19 GR
- area over the GR curve (MCF12A): 0.089 GR
- area over the GR curve (MDAMB175VII): 0.417 GR
- area over the GR curve (MGH312): 0.771 GR
- area over the GR curve (PDX1258): 0.23 GR
- area over the GR curve (PDXHCI002): 0.212 GR
- area over the GR curve (SKBR3): 0.512 GR
- area over the GR curve (SUM1315): 0.371 GR
- area over the GR curve (SUM149): 0.117 GR
- area over the GR curve (SUM44PE): 0.392 GR
- area over the GR curve (ZR7530): 0.465 GR

Structure (SMILES): Cc1cc(Nc2ncc(Cl)c(Nc3ccccc3S(=O)(=O)C(C)C)n2)c(OC(C)C)cc1C1CCNCC1 [Ceritinib/LDK378] (max 10 µM)
- area over the GR curve (AU565): 0.0682 GR
- area over the GR curve (CAL120): 0.337 GR
- area over the GR curve (CAL51): 0.417 GR
- area over the GR curve (MCF12A): 0.0596 GR
- area over the GR curve (MDAMB175VII): -0.0348 GR
- area over the GR curve (MGH312): 0.001 GR
- area over the GR curve (PDX1258): 0.199 GR
- area over the GR curve (PDXHCI002): 0.503 GR
- area over the GR curve (SKBR3): 0.301 GR
- area over the GR curve (SUM1315): 0.413 GR
- area over the GR curve (SUM149): 0.249 GR
- area over the GR curve (SUM44PE): 0.131 GR
- area over the GR curve (ZR7530): 0.0423 GR

Structure (SMILES): CC(=O)Nc1cccc(-n2c(=O)n(C3CC3)c(=O)c3c(Nc4ccc(I)cc4F)n(C)c(=O)c(C)c32)c1 (max 1 µM)
- area over the GR curve (AU565): -0.0244 GR
- area over the GR curve (CAL120): 0.294 GR
- area over the GR curve (CAL51): 0.0662 GR
- area over the GR curve (MCF12A): 0.531 GR
- area over the GR curve (MDAMB175VII): 0.938 GR
- area over the GR curve (MGH312): -0.169 GR
- area over the GR curve (PDX1258): 0.0351 GR
- area over the GR curve (PDXHCI002): 0.2 GR
- area over the GR curve (SKBR3): 0.182 GR
- area over the GR curve (SUM1315): 0.389 GR
- area over the GR curve (SUM149): 0.39 GR
- area over the GR curve (SUM44PE): 0.186 GR
- area over the GR curve (ZR7530): 0.219 GR

Structure (SMILES): CC[C@@]1(O)C(=O)OCc2c1cc1n(c2=O)Cc2cc3c(CN(C)C)c(O)ccc3nc2-1 [Topotecan] (max 10 µM)
- area over the GR curve (CAL120): 0.913 GR
- area over the GR curve (CAL51): 0.856 GR
- area over the GR curve (PDX1258): 0.867 GR
- area over the GR curve (PDXHCI002): 1.02 GR
- area over the GR curve (SKBR3): 0.794 GR
- area over the GR curve (SUM1315): 0.769 GR
- area over the GR curve (SUM149): 0.941 GR

Structure (SMILES): CCNC(=O)c1noc(-c2cc(C(C)C)c(O)cc2O)c1-c1ccc(CN2CCOCC2)cc1 [Luminespib/NVP-AUY922] (max 1 µM)
- area over the GR curve (AU565): 0.689 GR
- area over the GR curve (CAL120): 0.693 GR
- area over the GR curve (CAL51): 0.704 GR
- area over the GR curve (MCF12A): 0.619 GR
- area over the GR curve (MDAMB175VII): 0.774 GR
- area over the GR curve (MGH312): 0.962 GR
- area over the GR curve (PDX1258): 0.608 GR
- area over the GR curve (PDXHCI002): 0.7 GR
- area over the GR curve (SKBR3): 0.714 GR
- area over the GR curve (SUM1315): 0.606 GR
- area over the GR curve (SUM149): 0.754 GR
- area over the GR curve (SUM44PE): 0.804 GR
- area over the GR curve (ZR7530): 0.536 GR

Structure (SMILES): COc1cc2nccc(Oc3ccc(NC(=O)C4(C(=O)Nc5ccc(F)cc5)CC4)cc3)c2cc1OC [Cabozantinib] (max 10 µM)
- area over the GR curve (AU565): -0.0067 GR
- area over the GR curve (CAL120): 0.0847 GR
- area over the GR curve (CAL51): 0.0598 GR
- area over the GR curve (MCF12A): -0.0141 GR
- area over the GR curve (MDAMB175VII): -0.124 GR
- area over the GR curve (MGH312): -0.0125 GR
- area over the GR curve (PDX1258): 0.0204 GR
- area over the GR curve (PDXHCI002): 0.0362 GR
- area over the GR curve (SKBR3): -0.0595 GR
- area over the GR curve (SUM1315): 0.105 GR
- area over the GR curve (SUM149): 0.0344 GR
- area over the GR curve (SUM44PE): 0.0196 GR
- area over the GR curve (ZR7530): 0.174 GR

Structure (SMILES): NC(=O)Nc1cc(-c2cccc(F)c2)sc1C(=O)N[C@H]1CCCNC1 [AZD7762] (max 10 µM)
- area over the GR curve (AU565): 0.338 GR
- area over the GR curve (CAL120): 0.492 GR
- area over the GR curve (CAL51): 0.714 GR
- area over the GR curve (MCF12A): 0.521 GR
- area over the GR curve (MDAMB175VII): 0.816 GR
- area over the GR curve (MGH312): 0.469 GR
- area over the GR curve (PDX1258): 0.909 GR
- area over the GR curve (PDXHCI002): 0.694 GR
- area over the GR curve (SKBR3): 0.88 GR
- area over the GR curve (SUM1315): 0.68 GR
- area over the GR curve (SUM149): 0.657 GR
- area over the GR curve (SUM44PE): 0.738 GR
- area over the GR curve (ZR7530): 0.199 GR

Structure (SMILES): CN(C)C(=O)c1cc2cnc(Nc3ccc(N4CCNCC4)cn3)nc2n1C1CCCC1 [LEE011/Ribociclib] (max 10 µM)
- area over the GR curve (AU565): 0.403 GR
- area over the GR curve (CAL120): 0.265 GR
- area over the GR curve (CAL51): 0.299 GR
- area over the GR curve (MCF12A): 0.0926 GR
- area over the GR curve (MDAMB175VII): 0.8 GR
- area over the GR curve (MGH312): -0.0019 GR
- area over the GR curve (PDX1258): -0.124 GR
- area over the GR curve (PDXHCI002): 0.123 GR
- area over the GR curve (SKBR3): 0.34 GR
- area over the GR curve (SUM1315): 0.35 GR
- area over the GR curve (SUM149): 0.188 GR
- area over the GR curve (SUM44PE): 0.357 GR
- area over the GR curve (ZR7530): 0.398 GR

Structure (SMILES): COc1cccc2c1C(=O)c1c(O)c3c(c(O)c1C2=O)C[C@@](O)(C(=O)CO)C[C@@H]3O[C@H]1C[C@H](N)[C@H](O)[C@H](C)O1 [Doxorubicin] (max 3.162 µM)
- area over the GR curve (AU565): 0.604 GR
- area over the GR curve (CAL120): 0.697 GR
- area over the GR curve (CAL51): 0.795 GR
- area over the GR curve (MCF12A): 0.601 GR
- area over the GR curve (MDAMB175VII): 0.908 GR
- area over the GR curve (MGH312): 1.07 GR
- area over the GR curve (PDX1258): 0.754 GR
- area over the GR curve (PDXHCI002): 0.969 GR
- area over the GR curve (SKBR3): 0.942 GR
- area over the GR curve (SUM1315): 0.513 GR
- area over the GR curve (SUM149): 0.754 GR
- area over the GR curve (SUM44PE): 0.629 GR
- area over the GR curve (ZR7530): 0.552 GR

Structure (SMILES): CCc1cnn2c(NCc3ccc[n+]([O-])c3)cc(N3CCCC[C@H]3CCO)nc12 (max 1 µM)
- area over the GR curve (AU565): 0.857 GR
- area over the GR curve (CAL120): 0.555 GR
- area over the GR curve (CAL51): 0.599 GR
- area over the GR curve (MCF12A): 0.424 GR
- area over the GR curve (MDAMB175VII): 0.607 GR
- area over the GR curve (MGH312): 0.867 GR
- area over the GR curve (PDX1258): 0.685 GR
- area over the GR curve (PDXHCI002): 0.584 GR
- area over the GR curve (SKBR3): 0.835 GR
- area over the GR curve (SUM1315): 0.766 GR
- area over the GR curve (SUM149): 0.687 GR
- area over the GR curve (SUM44PE): 0.334 GR
- area over the GR curve (ZR7530): 0.713 GR

Structure (SMILES): CN(C)C/C=C/C(=O)Nc1ccc(C(=O)N2CCC[C@@H](Nc3ncc(Cl)c(-c4c[nH]c5ccccc45)n3)C2)cc1 [THZ531] (max 1 µM)
- area over the GR curve (AU565): 0.42 GR
- area over the GR curve (CAL120): 0.21 GR
- area over the GR curve (CAL51): 0.0896 GR
- area over the GR curve (MCF12A): 0.0965 GR
- area over the GR curve (MDAMB175VII): 0.567 GR
- area over the GR curve (MGH312): 0.636 GR
- area over the GR curve (PDX1258): 0.457 GR
- area over the GR curve (PDXHCI002): 0.352 GR
- area over the GR curve (SKBR3): 0.545 GR
- area over the GR curve (SUM1315): 0.148 GR
- area over the GR curve (SUM149): 0.154 GR
- area over the GR curve (SUM44PE): 0.177 GR
- area over the GR curve (ZR7530): 0.472 GR

Source: the supplement of paper PMC9663587
